What was measured:
CAATCH1 (msCAATCH1) [1] = target: T1, CAATCH1 (msCAATCH1) (Manduca sexta, UniProt Q9U5A9); experiment: two-electrode voltage clamp in oocytes, transport current; assay type: cell-based; conditions: NaCl 98 mmol/L, pH 7.6, -60 mV
T1 construct: full-length transporter from cRNA in Xenopus laevis oocytes
T1 sequence (Q9U5A9 1-633): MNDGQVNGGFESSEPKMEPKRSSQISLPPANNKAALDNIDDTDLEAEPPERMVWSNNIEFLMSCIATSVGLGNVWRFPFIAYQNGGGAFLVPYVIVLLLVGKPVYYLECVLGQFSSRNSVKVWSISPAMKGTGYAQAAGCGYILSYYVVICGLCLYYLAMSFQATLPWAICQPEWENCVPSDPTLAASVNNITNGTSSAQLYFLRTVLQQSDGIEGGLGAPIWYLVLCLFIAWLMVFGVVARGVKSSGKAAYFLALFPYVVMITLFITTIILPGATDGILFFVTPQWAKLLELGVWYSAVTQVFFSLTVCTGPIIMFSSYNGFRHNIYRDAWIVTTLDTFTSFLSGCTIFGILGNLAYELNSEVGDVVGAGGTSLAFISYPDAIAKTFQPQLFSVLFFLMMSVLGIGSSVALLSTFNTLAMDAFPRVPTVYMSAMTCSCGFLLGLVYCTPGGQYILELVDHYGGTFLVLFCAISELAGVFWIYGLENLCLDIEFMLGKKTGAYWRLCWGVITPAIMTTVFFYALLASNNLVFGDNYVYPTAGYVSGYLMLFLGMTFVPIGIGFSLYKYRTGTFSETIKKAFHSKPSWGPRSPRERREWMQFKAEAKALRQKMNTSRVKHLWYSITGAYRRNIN

KAAT1 (msKAAT1) = target: T2, KAAT1 (msKAAT1) (Manduca sexta, UniProt O76188); experiment: as above; assay type: cell-based; conditions: NaCl 98 mmol/L, pH 7.6, -60 mV; main transport site, up to 300 μmol/L
T2 construct: full-length transporter from cRNA in Xenopus laevis oocytes
T2 sequence (O76188 1-634): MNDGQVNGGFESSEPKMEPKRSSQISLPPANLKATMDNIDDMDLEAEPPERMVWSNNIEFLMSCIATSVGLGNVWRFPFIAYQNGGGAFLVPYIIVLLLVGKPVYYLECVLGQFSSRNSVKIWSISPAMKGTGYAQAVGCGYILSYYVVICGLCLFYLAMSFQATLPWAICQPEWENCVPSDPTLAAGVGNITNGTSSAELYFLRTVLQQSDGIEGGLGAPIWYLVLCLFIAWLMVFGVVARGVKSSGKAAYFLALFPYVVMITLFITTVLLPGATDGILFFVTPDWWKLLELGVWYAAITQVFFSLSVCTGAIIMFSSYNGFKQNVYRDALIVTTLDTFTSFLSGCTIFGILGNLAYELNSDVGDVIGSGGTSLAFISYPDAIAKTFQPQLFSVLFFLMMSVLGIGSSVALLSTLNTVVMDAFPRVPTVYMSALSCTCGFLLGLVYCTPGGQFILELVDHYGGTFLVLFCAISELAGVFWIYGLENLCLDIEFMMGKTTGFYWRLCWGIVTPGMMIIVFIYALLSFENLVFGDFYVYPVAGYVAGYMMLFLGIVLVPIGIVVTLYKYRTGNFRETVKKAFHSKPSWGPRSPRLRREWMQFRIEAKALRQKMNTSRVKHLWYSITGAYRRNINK

CAATCH1 (msCAATCH1) [2] = target: T1, CAATCH1 (msCAATCH1); experiment: two-electrode voltage clamp in oocytes, block of leak current; assay type: cell-based; conditions: NaCl 98 mmol/L, pH 7.6, -60 mV; blocker, not transported
[3] = substrate: CC(C)C[C@H](N)C(=O)O; experiment: two-electrode voltage clamp in oocytes, transport current; assay type: cell-based, Manduca sexta; conditions: NaCl 98 mmol/L, pH 7.6, -60 mV, 20-25 °C

## CC(C)C[C@@H](N)C(=O)O [D‐leucine]
CAATCH1 (msCAATCH1) [1]; 30-1000 μmol/L
  two-electrode voltage clamp in oocytes, transport current: The amplitude of the response to D‐leucine increases with the substrate concentration
KAAT1 (msKAAT1)
  two-electrode voltage clamp in oocytes, transport current: increasing concentrations of D‐leucine to the oocyte caused progressively larger transport currents

## N[C@H](CO)C(=O)O [D‐serine]
CAATCH1 (msCAATCH1) [1]
  two-electrode voltage clamp in oocytes, transport current: the D‐enantiomer gives rise to a large current

## CC(C)C[C@H](N)C(=O)O [L‐leucine]
CAATCH1 (msCAATCH1) [2]
  two-electrode voltage clamp in oocytes, block of leak current: L‐leucine produces an apparent outward current, actually representing a block of the leak current

## N[C@@H](CO)C(=O)O [L‐serine]
CAATCH1 (msCAATCH1) [2]
  two-electrode voltage clamp in oocytes, block of leak current: has a blocking effect similar to that of L‐leucine

B1: KAAT1 (msKAAT1) (Manduca sexta) (protein)
chain: MNDGQVNGGFESSEPKMEPKRSSQISLPPANLKATMDNIDDMDLEAEPPERMVWSNNIEFLMSCIATSVGLGNVWRFPFIAYQNGGGAFLVPYIIVLLLVGKPVYYLECVLGQFSSRNSVKIWSISPAMKGTGYAQAVGCGYILSYYVVICGLCLFYLAMSFQATLPWAICQPEWENCVPSDPTLAAGVGNITNGTSSAELYFLRTVLQQSDGIEGGLGAPIWYLVLCLFIAWLMVFGVVARGVKSSGKAAYFLALFPYVVMITLFITTVLLPGATDGILFFVTPDWWKLLELGVWYAAITQVFFSLSVCTGAIIMFSSYNGFKQNVYRDALIVTTLDTFTSFLSGCTIFGILGNLAYELNSDVGDVIGSGGTSLAFISYPDAIAKTFQPQLFSVLFFLMMSVLGIGSSVALLSTLNTVVMDAFPRVPTVYMSALSCTCGFLLGLVYCTPGGQFILELVDHYGGTFLVLFCAISELAGVFWIYGLENLCLDIEFMMGKTTGFYWRLCWGIVTPGMMIIVFIYALLSFENLVFGDFYVYPVAGYVAGYMMLFLGIVLVPIGIVVTLYKYRTGNFRETVKKAFHSKPSWGPRSPRLRREWMQFRIEAKALRQKMNTSRVKHLWYSITGAYRRNINK
notes: full-length transporter from cRNA in Xenopus laevis oocytes
[3]
  K0.5: 10 µmol/L
